{
  "source": "patent US20250281480A1",
  "about": "“PHARMACEUTICAL DRY POWDER INHALATION FORMULATION” (Bayer Aktiengesellschaft, priority 2021, published 2025)",
  "key": {"[1]": {"settings": "XRPD", "quoted_text": "There was no sample preparation.\n3 g (5S)—{[2-(4-Carboxyphenyl)ethyl][2-(2-{[3-chloro-4′-(trifluoromethyl)biphenyl-4-yl]methoxy}-phenyl)ethyl]amino}-5,6,7,8-tetrahydroquinoline-2-carboxylic acid monohydrate I, (material prepared in analogy to example 3/4) were suspended in 20 mL of methanol. The suspension was stirred at ambient conditions for eight days. The residue was filtered and the resulting solid was dryed at ambient conditions. • water content: 4.8% water • Raman: see table 13, see FIG. 17 • IR: see table 14, see FIG. 24 • XRPD: see table 12, see FIG. 10"}, "healthy male subjects": {"tested_on": "healthy male subjects", "experiment": "Phase I, healthy male subjects, 7 days: bodyplethysmography, total specific airway resistance (sRaw)", "format": "in vivo, human", "description": "(§1) Healthy White male subjects, aged 18 to 45 years and with a body mass index (BMI) above/equal 18.5 and below/equal 29.9 kg/m2 were treated in a clinical pharmacological phase I study on seven days with inhaled once daily doses of 480 or 1000 or 2000 μg (2 capsules of 1000 μg) (nominal dose) of dry powder formulations of example 2 or Placebo. The subjects inhaled the drug powder from capsules (see under C, e.g. tables 22 and 23) inserted into a handheld inhalation device by one deep inhalative breath. The dry powder formulation of the drug is dispersed into the airstream and fine particles are transported into the deep parts of the lung where it is intended to cause a vasodilation of the blood vessels in PH patients for a substantial reduction of increased blood pressure in the central pulmonary blood vessels in PAH patients or other subtypes of PH. This effect cannot be shown in subjects with healthy lungs. In addition inhaled drug causes a dilation of the bronchial airways and thus also improves disease states of lung diseases in PH patients with pathological bronchoconstriction. This effect was measured via bodyplethysmography as reduction of Specific Airway Resistance in healthy subjects. […]"}, "cGMP": {"tested_on": "cGMP", "experiment": "Phase I, healthy male subjects, inhaled once daily for 7 days: cGMP in blood samples", "format": "in vivo, human", "description": "Healthy White male subjects, aged 18 to 45 years and with a body mass index (BMI) above/equal 18.5 and below/equal 29.9 kg/m2 were treated in a clinical pharmacological phase I study on seven days with inhaled once daily doses of 480 or 1000 or 2000 μg (2 capsules of 1000 μg) (nominal dose) of dry powder formulations of example 2 or Placebo. The subjects inhaled the drug powder from capsules (see under C, e.g. tables 22 and 23) inserted into a handheld inhalation device by one deep inhalative breath. The dry powder formulation of the drug is dispersed into the airstream and fine particles are transported into the deep parts of the lung where it is intended to cause a vasodilation of the blood vessels in PH patients for a substantial reduction of increased blood pressure in the central pulmonary blood vessels in PAH patients or other subtypes of PH. This effect cannot be shown in subjects with healthy lungs. In addition inhaled drug causes a dilation of the bronchial airways and thus also improves disease states of lung diseases in PH patients with pathological bronchoconstriction. This effect was measured via bodyplethysmography as reduction of Specific Airway Resistance in healthy subjects. After the deep inhalative breath the subjects hold breath for 2 seconds, so that the dry powder drug condenses from the airstream onto the surface of the deeper lung areas where it is deposited close to its site of intended pharmacological action. The drug dissolutes over the day and equilibrates the lung via lining fluid.\nDrug activity in healthy men was controlled in the healthy subjects by analysing blood samples for cGMP, the immediate product of sGC pharmacological activation prior after the first and after the last drug inhalation of the 7 days treatment in comparison to measurements on the pretreatment day for all doses."}, "[2]": {"experiment": "Storage stability of pseudopolymorphic forms (XRPD)", "format": "physicochemical"}, "[3]": {"experiment": "Micronization of monohydrate II and monohydrate I (spiral jet mill): solid form after micronization", "format": "physicochemical", "source_text": "Generally no amorphization even partial nor form conversion should happen during the necessary micronization step.\nThe corresponding batches (examples 8a-8d) were micronized using a 50 mm spiral jet mill and pressurized nitrogen with the following parameters (see table 16b).\nThe corresponding batches were micronized using a 100 mm spiral jet mill and pressurized nitrogen with the following parameters (see table 16c)."}, "[4]": {"experiment": "Phase I, healthy male subjects, 7 days: plasma concentrations over time", "format": "in vivo, human", "settings": "after first inhalation, all doses", "description": "as §1"}, "[5]": {"tested_on": "anesthetized PAH minipigs", "experiment": "PAH minipig, intratracheal application of dry powder formulations and of different hydrates (PAP, BP)", "format": "in vivo, Göttingen Minipigs", "settings": "375 μg/kg i.t.", "description": "Healthy Göttingen Minipigs® Ellegaard (Ellegaard, Denmark) of both sexes and having a weight of 2-6 kg were used. The animals were sedated by i.m. administration of about 25 mg/kg ketamine and about 10 mg/kg azaperone. Anaesthesia was initiated by i.v. administration of about 2 mg/kg ketamine and about 0.3 mg/kg midazolam. Maintenance of anaesthesia was by i.v. administration of about 7.5-30 mg/kg/h ketamine and about 1-4 mg/kg/h midazolam (rate of infusion 1-4 ml/kg/h) and about 150 μg/kg/h pancuronium bromide (for example Pancuronium-Actavis). After intubation, the animals were ventilated by the ventilator at a constant respiratory volume (10-12 ml/kg, 35 breaths/min; Avea®, Viasys Healthcare, USA, or Engström Carestation, GE Healthcare, Freiburg, Germany) such that an end-tidal CO2 concentration of about 5% was achieved. Ventilation was performed with room air, enriched with about 40% oxygen (normoxia). For the measurement of the haemodynamic parameters such as pulmonary arterial pressure (PAP), blood pressure (BP) and heart rate (HR), catheters were inserted into the carotid artery to measure the blood pressure, and a Swan-Ganz® catheter was introduced in a flow-directed manner via the jugular vein into the pulmonary artery. The haemodynamic signals were recorded and evaluated by means of pressure transducers (Combitransducer, B. Braun, Melsungen, Germany)/amplifiers and Ponemah® as data acquisition software.\nAbout 0.3-0.75 μg/kg/min of 9,11-didesoxy-9α,11α-epoxymethanoprostaglandine F2α (U-44069; Sigma, cat. no. D0400, or Cayman Chemical Company, cat. no. 16440), dissolved in physiological saline, were infused to achieve an increase of the mean pulmonary arterial pressure to values of over 25 mmHg.\nAfter characterization of the effects of comparative example 11 after nebulization of compound solutions, in a further step the effects of crystalline forms of comparative example 11, e.g. sesquihydrate, e.g. example 6e on PAP and BP after inhaled application of different dry powder lactose formulations (table 52) were studied in anesthetized PAH minipigs.\nAs reference pure Lactose vehicle was applied in the beginning of each experiment."}},
  "data": [
    {"smiles": "O.O.O=C(O)c1ccc(CCN(CCc2ccccc2OCc2ccc(-c3ccc(C(F)(F)F)cc3)cc2Cl)[C@H]2CCCc3nc(C(=O)O)ccc32)cc1", "note": "[Example 6f]", "values": [
      {"measurement": "solid form after drying", "setting": "[1]", "value": "went amorphous"}
    ]},
    {"smiles": "O=C(O)c1ccc(CCN(CCc2ccccc2OCc2ccc(-c3ccc(C(F)(F)F)cc3)cc2Cl)[C@H]2CCCc3nc(C(=O)O)ccc32)cc1", "note": "[Example 2, (5S)—{[2-(4-Carboxyphenyl)ethyl][2-(2-{[3-chloro-4′-(trifluoromethyl)biphenyl-4-yl]methoxy}phenyl)-ethyl]amino}-5,6,7,8-tetrahydroquinoline-2-carboxylic Acid as Monohydrate II]", "values": [
      {"measurement": "total specific airway resistance (means)", "setting": "healthy male subjects; 480 μg inhaled once daily, 0 D 06 H 00 M", "value": "0.800 ± 0.187", "unit": "kPa/sec"},
      {"measurement": "total specific airway resistance (means)", "setting": "healthy male subjects; 2000 μg inhaled once daily, 7 D 06 H 00 M", "value": "0.730 ± 0.151", "unit": "kPa/sec"},
      {"measurement": "cGMP over time (means)", "setting": "cGMP; 480 μg inhaled once daily, 7 D 15 H 00 M", "value": "8.56 ± 2.80", "unit": "nmol/L"},
      {"measurement": "cGMP over time (means)", "setting": "cGMP; 480 μg inhaled once daily, 8 D 00 H 00 M", "value": "7.20 ± 3.23", "unit": "nmol/L"},
      {"measurement": "cGMP over time (means)", "setting": "cGMP; 480 μg inhaled once daily, 8 D 12 H 00 M", "value": "6.20 ± 2.00", "unit": "nmol/L"},
      {"measurement": "cGMP over time (means)", "setting": "cGMP; 480 μg inhaled once daily, 9 D 00 H 00 M", "value": "5.64 ± 2.53", "unit": "nmol/L"},
      {"measurement": "cGMP over time (means)", "setting": "cGMP; 480 μg inhaled once daily, −0 D 09 H 00 M", "value": "5.60 ± 1.08", "unit": "nmol/L"},
      {"measurement": "cGMP over time (means)", "setting": "cGMP; 480 μg inhaled once daily, −1 D 02 H 00 M", "value": "5.40 ± 1.41", "unit": "nmol/L"},
      {"measurement": "cGMP over time (means)", "setting": "cGMP; 1000 μg inhaled once daily, 5 D 00 H 00 M", "value": "8.50 ± 2.13", "unit": "nmol/L"},
      {"measurement": "cGMP over time (means)", "setting": "cGMP; 1000 μg inhaled once daily, −0 D 20 H 00 M", "value": "4.78 ± 1.37", "unit": "nmol/L"},
      {"measurement": "cGMP over time (means)", "setting": "cGMP; 1000 μg inhaled once daily, −0 D 22 H 00 M", "value": "5.10 ± 1.46", "unit": "nmol/L"},
      {"measurement": "cGMP over time (means)", "setting": "cGMP; 2000 μg inhaled once daily, 2 D 00 H 00 M", "value": "6.40 ± 2.09", "unit": "nmol/L"},
      {"measurement": "cGMP over time (means)", "setting": "cGMP; 2000 μg inhaled once daily, 3 D 00 H 00 M", "value": "10.00 ± 3.51", "unit": "nmol/L"},
      {"measurement": "cGMP over time (means)", "setting": "cGMP; 2000 μg inhaled once daily, 8 D 00 H 00 M", "value": "16.00 ± 5.77", "unit": "nmol/L"},
      {"measurement": "cGMP over time (means)", "setting": "cGMP; 2000 μg inhaled once daily, 9 D 12 H 00 M", "value": "9.40 ± 3.10", "unit": "nmol/L"},
      {"measurement": "cGMP over time (means)", "setting": "cGMP; 2000 μg inhaled once daily, −0 D 18 H 00 M", "value": "4.32 ± 1.33", "unit": "nmol/L"},
      {"measurement": "Result (solid form after storage)", "setting": "[2]; example 7a: brown glass snap on closure, 25° C., 60% relative humidity", "value": "monohydrate II"},
      {"measurement": "Result (solid form after storage)", "setting": "[2]; example 7b: polyethylene, 25° C., 60% relative humidity", "value": "monohydrate I"},
      {"measurement": "Result (solid form after storage)", "setting": "[2]; example 7c: polyethylene, 40° C., 75% relative humidity", "value": "monohydrate I"},
      {"measurement": "Result (solid form after storage)", "setting": "[2]; example 7d: brown glass closed with paper filter disc, 40° C., 75% relative humidity", "value": "monohydrate I"},
      {"measurement": "XRPD after micronization", "setting": "[3]; example 2 batch", "value": "monohydrate II with partial amorphization"},
      {"measurement": "solid form after micronization", "setting": "[3]; example 8a: VA jet mill (diameter 50 mm), 25° C.", "value": "transformation from monohydrate II to monohydrate I"},
      {"measurement": "solid form after micronization", "setting": "[3]; example 8b, several conditions, even low stress", "value": "partial amorphization"},
      {"measurement": "measurable plasma concentration persisted for", "setting": "[4]", "value": 48, "unit": "h"},
      {"measurement": "efficacy with regard to PAP reduction and systemic BP reduction", "setting": "[5]; micronized hydrates", "value": "comparable efficacy"},
      {"measurement": "PAP(mean)", "setting": "[5]; time 160, per animal", "value": 27.8, "unit": "mmHg"}
    ]}
  ]
}
